Laboratory results taken from patent US9290551B2, “Compounds for treating papilloma virus infection” (NanoVir, LLC, priority 2012, dated 2016).

Assays:
[1] = system: Keratinocytes that maintain HPV 16 episomes; assay: MTT cell viability assay; settings: MTT assay; FIG. 2B, FIG. 5
Method: Cells were cultured for 5 days in the presence of polyamide; % Cell Viability=(OD590 drug/OD590 control)×100; n=3.
Solubilisation of the cells by the addition of a detergent results in the liberation of the crystals which are solubilized. The number of surviving cells is directly proportional to the level of the formazan product created. The color can then be quantified using a simple colorimetric assay. The results can be read on a multiwell scanning spectrophotometer (ELISA reader).
Cell viability was also assessed routinely with the MTT assay.

[2] = system: HPV 16; assay: HPV 16 episome DNA levels in W12E cells by Q-PCR (Taqman); type: cell-based, Human papilloma virus; settings: for IC50: effective (pseudo) IC50, 50% reduction in HPV DNA relative to vehicle (0.1% DMSO), read-out: HPV-16 IC50
Method: Cells maintaining HPV 16 DNA were cultured for 72 hours in the presence of cidofovir, interferon γ or polyamide. Viral DNA was then quantified using real-time PCR and compared to vehicle (DMSO)-treated control cultures.
Compounds were initially tested for effects on HPV 16 episome DNA levels in W12E cells by Q-PCR (Taqman™) over 3 concentration ranges (0.1, 1 and 10 μM). W12E cells are a cervical keratinocyte cell line originally identified by M. Stanley (Cambridge University), and later optimized and provided by P. Lambert (U. of Wisconsin). […] In all cases (initial tests and follow-up IC50 tests), dose testing was performed in triplicate. […] Furthermore, all experiments were conducted in triplicate, multiple times. The data were then combined, pseudo or effective IC50 values calculated, and variance determined to reveal the fit of the data to the model and its reliability.
Keratinocytes that maintain HPV 16 episomes were treated with increasing concentrations of polyamides.

[3] = system: HPV31; assay: HPV31 DNA levels in keratinocytes by real-time PCR; type: cell-based, Human papilloma virus; settings: effective (pseudo) IC50
Method: (§1) Human keratinocytes, including those maintaining HPV episomes, are cultured on mitomycin C-treated J2 3T3 cells in media containing three parts Dulbecco's modified Eagle medium (DMEM) and one part F12 media, our modification of published methods (Rheinwald and Green, 1975). Media (E Media) is supplemented with 0.4 μg/mL hydrocortisone, 10 ng/mL cholera toxin, 5 μg/mL insulin, 24 μg/mL adenine, 5 μg/mL transferrin, […] (T3), 10 ng/mL epidermal growth factor (EGF), 1% penicillin-streptomycin, and 5% fetal bovine serum (FBS). All cells are passaged at 70% confluency at a split ratio of 1:5.
(§2) Polyamides for HPV 18 are dissolved at 10 mM in 100% DMSO and diluted with H2O to 1 mM. Polyamides are added to cells in E media at final concentrations of 0.1-10 μM, with final DMSO concentrations of 0.1%. As controls, cells are incubated with normal E media and E media containing the “vehicle” 0.1% DMSO. The HPV DNA levels are then quantified according to previously published procedures (Garner-Hamrick and Fisher, Virology, 301, 334-41, 2002). After incubation, cells are harvested from the plates by either trypsinization or direct lysis with proteinase K digestion buffer (PK buffer: 100 mM NaCl, 10 mM Tris pH 8, 25 mM EDTA, 0.5% SDS, 0.1 mg/mL proteinase K). Trypsinized cells are counted on a hemocytometer and pelleted by centrifugation. Episomal HPV is isolated by the Hirt method (Hirt, 1967) and cell pellets are lysed in 0.6% SDS with 10 mM EDTA. NaCl is next added to a final concentration of 1 M. Following an overnight incubation at 4° C., precipitates containing the chromosomal DNA are spun down and episomal DNA precipitated by the addition of isopropanol. Cells lysed directly in PK buffer are transferred to microfuge tubes and incubated at 50° C. for 2 h. Lysates are then extracted with phenol/chloroform/isoamyl alcohol and spun through a phase lock gel (Eppendorf, Hamburg, Germany). Total DNA is then precipitated with 0.3 M NaOAc and 2.5 vol. ethanol and resuspended in Tris-EDTA (TE) buffer.
HPV31 primers-probe sets for PCR were also designed within the L1 gene:
(§3) All primers and probes are synthesized and HPLC purified by Applied Biosystems (Foster City, Calif.). The HPV probes are labeled with the 5′ reporter dye FAM (6-carboxy-fluorescein) and the 3′ quencher dye TAMRA (6-carboxytetramethyl-rhodamine). A standard curve is generated using a range of 10^8 to 10 copies/reaction of cloned, genomic HPV31 or HPV18 DNA using the following formula: (1.82×10^15)(μg/μL stock DNA)/(length in base pairs)(2)=copies/μL stock DNA. PCR reactions contain final concentrations of 1× Universal Master Mix (PE Applied Biosystems), 200 nM of each primer, and 250 nM probe (PE Applied Biosystems) in a reaction volume of 25 μL. Each Hirt-isolated DNA sample is analyzed in triplicate reactions for episomal HPV. Copies/reaction are determined from the standard curve, and copies/cell determined according to the following formula: (copies/reaction)×(DNA dilution)/(total # cells)=copies/cell.

[4] = system: HPV18; assay: HPV18 DNA levels in keratinocytes by real-time PCR; type: cell-based, Human papilloma virus; settings: effective (pseudo) IC50
Method: as §1, §2
Viral DNA levels are next quantified according to variations on our previously published methods (Garner-Hamrick and Fisher, Virology, 301, 334-41, 2002). Quantitative PCR is performed using Real-Time PCR technology on an ABI PRISM 7700 Sequence Detector. All primers and probes were designed using Primer Express 1.0 (ABI). For HPV 18, PCR primer-probe sets were designed within the L1 gene:
as §3

Molecule | effect on cell viability [1] | effect on HPV viral DNA ([2]; comparison of 1037, distamycin A and cidofovir, FIG. 5) | IC50 [3] [nM] | IC50 [4] [nM] | IC50 [2] [nM]
Cn1cc(NC(=O)c2cc(NC(=O)c3cc(NC=O)cn3C)cn2C)cc1C(=O)NCCC(=N)N [distamycin A, reference compound] | also affect cell viability | only effective against HPV DNA at high concentrations |  |  | 
CN(C)CCCNC(=O)CCNC(=O)c1cc(NC(=O)c2cc(NC(=O)c3cc(NC(=O)CCNC(=O)c4cc(NC(=O)c5cc(NC(=O)c6cc(NC(=O)CCNC(=O)c7cc(NC(=O)c8cc(NC(=O)c9cc(NC(=O)CCCNC(=O)c%10cc(NC(=O)c%11cc(NC(=O)CCNC(=O)c%12cc(NC(=O)c%13cc(NC(=O)c%14cc(NC(=O)CCNC(=O)c%15cc(NC(=O)c%16cc(NC(=O)c%17cc(NC(=O)c%18nccn%18C)cn%17C)cn%16C)cn%15C)cn%14C)cn%13C)cn%12C)cn%11C)cn%10C)cn9C)cn8C)cn7C)cn6C)cn5C)cn4C)cn3C)cn2C)cn1C [Polyamide 1047, ImPPPβPPPβPPγPPPβPPPβPPPβDp] |  |  | ≥ 1000 | ≥ 1000 | > 1000
CN(CCCN)CCCNC(=O)c1cc(NC(=O)c2cc(NC(=O)c3cc(NC(=O)c4cc(NC(=O)c5cc(NC(=O)CCNC(=O)c6cc(NC(=O)c7cc(NC(=O)CCCNC(=O)c8cc(NC(=O)c9cc(NC(=O)c%10cc(NC(=O)CCNC(=O)c%11cc(NC(=O)c%12cc(NC(=O)c%13nccn%13C)cn%12C)cn%11C)cn%10C)cn9C)cn8C)cn7C)cn6C)cn5C)cn4C)cn3C)cn2C)cn1C [Polyamide 1069, ImPPβPPPγPPβPPPPPTa] |  |  | 100 to 1000 | ≥ 1000 | 100 to 1000
CC(=O)N[C@H](CCNC(=O)c1cc(NC(=O)c2cc(NC(=O)CCNC(=O)c3nc(NC(=O)c4cc(NC(=O)c5cc(NC(=O)CCNC(=O)c6cc(NC(=O)c7cc(NC(=O)c8nccn8C)cn7C)cn6C)cn5C)cn4C)cn3C)cn2C)cn1C)C(=O)Nc1cc(C(=O)Nc2cc(C(=O)NCCC(=O)Nc3cc(C(=O)Nc4cc(C(=O)Nc5cc(C(=O)NCCC(=O)Nc6cc(C(=O)Nc7cc(C(=O)Nc8cc(C(=O)NCCC(=O)NCCCN(C)C)n(C)c8)n(C)c7)n(C)c6)n(C)c5)n(C)c4)n(C)c3)n(C)c2)n(C)c1 [Polyamide 1068, ImPPβPPIβPPγNHAcPPβPPPβPPPβDp] |  |  | 100 to 1000 | 100 to 1000 | 100 to 1000
ImPPβPPIβPPγPPβPPPβPPPPTa [Polyamide 1070] |  |  | 100 to 1000 | 100 to 1000 | 100 to 1000
CN(C)CCCNC(=O)CCNC(=O)c1cc(NC(=O)CCNC(=O)c2cc(NC(=O)c3cc(NC(=O)c4cc(NC(=O)CCNC(=O)c5cc(NC(=O)c6cc(NC(=O)[C@H](N)CCNC(=O)CCNC(=O)c7cc(NC(=O)c8cc(NC(=O)CCNC(=O)c9cc(NC(=O)c%10cc(NC(=O)c%11cc(NC(=O)c%12nccn%12C)cn%11C)cn%10C)cn9C)cn8C)cn7C)cn6C)cn5C)cn4C)cn3C)cn2C)cn1C [Polyamide 1029, ImPPPβPPβγNH2PPβPPPβPβDp] |  |  | 100 to 1000 | ≥ 1000 | 100 to 1000
CN(C)CCCNC(=O)CCNC(=O)c1cc(NC(=O)c2cc(NC(=O)c3cc(NC(=O)CCNC(=O)c4cc(NC(=O)c5cc(NC(=O)c6cc(NC(=O)CCNC(=O)c7cc(NC(=O)c8cc(NC(=O)[C@H](N)CCNC(=O)c9cc(NC(=O)c%10cc(NC(=O)CCNC(=O)c%11nc(NC(=O)c%12cc(NC(=O)c%13cc(NC(=O)CCNC(=O)c%14cc(NC(=O)c%15cc(NC(=O)c%16nccn%16C)cn%15C)cn%14C)cn%13C)cn%12C)cn%11C)cn%10C)cn9C)cn8C)cn7C)cn6C)cn5C)cn4C)cn3C)cn2C)cn1C [Polyamide 1066, ImPPβPPIβPPγNH2PPβPPPβPPPβDp] |  |  | 100 to 1000 | 100 to 1000 | 100 to 1000
CN(CCCN)CCCNC(=O)CCNC(=O)c1cc(NC(=O)CCNC(=O)c2cc(NC(=O)c3cc(NC(=O)c4cc(NC(=O)CCNC(=O)c5cc(NC(=O)c6cc(NC(=O)CCCNC(=O)CCNC(=O)c7cc(NC(=O)c8cc(NC(=O)CCNC(=O)c9cc(NC(=O)c%10cc(NC(=O)c%11cc(NC(=O)c%12nccn%12C)cn%11C)cn%10C)cn9C)cn8C)cn7C)cn6C)cn5C)cn4C)cn3C)cn2C)cn1C [Polyamide 1027, ImPPPβPPβγPPβPPPβPβTa] |  |  | 100 to 1000 | 100 to 1000 | 100 to 1000
CN(CCCN)CCCNC(=O)CCNC(=O)c1cc(NC(=O)c2cc(NC(=O)c3cc(NC(=O)c4cc(NC(=O)CCNC(=O)c5cc(NC(=O)c6cc(NC(=O)[C@H](N)CCNC(=O)c7cc(NC(=O)c8cc(NC(=O)c9cc(NC(=O)CCNC(=O)c%10cc(NC(=O)c%11cc(NC(=O)c%12nccn%12C)cn%11C)cn%10C)cn9C)cn8C)cn7C)cn6C)cn5C)cn4C)cn3C)cn2C)cn1C [Polyamide 1030, ImPPβPPPγNH2PPβPPPPβTa] |  |  | 100 to 1000 | 100 to 1000 | 100 to 1000
CN(CCCN)CCCNC(=O)CCNC(=O)c1cc(NC(=O)c2cc(NC(=O)c3cc(NC(=O)CCNC(=O)c4cc(NC(=O)c5cc(NC(=O)c6cc(NC(=O)CCNC(=O)c7cc(NC(=O)c8cc(NC(=O)c9cc(NC(=O)CCCNC(=O)c%10cc(NC(=O)c%11cc(NC(=O)CCNC(=O)c%12cc(NC(=O)c%13cc(NC(=O)c%14cc(NC(=O)CCNC(=O)c%15cc(NC(=O)c%16cc(NC(=O)c%17cc(NC(=O)c%18nccn%18C)cn%17C)cn%16C)cn%15C)cn%14C)cn%13C)cn%12C)cn%11C)cn%10C)cn9C)cn8C)cn7C)cn6C)cn5C)cn4C)cn3C)cn2C)cn1C [Polyamide 1048, ImPPPβPPPβPPγPPPβPPPβPPPβTa] |  |  | 100 to 1000 | 100 to 1000 | 100 to 1000
CN(C)CCCNC(=O)CCNC(=O)c1cc(NC(=O)c2cc(NC(=O)c3cc(NC(=O)CCNC(=O)c4cc(NC(=O)c5cc(NC(=O)c6cc(NC(=O)CCNC(=O)c7cc(NC(=O)c8cc(NC(=O)[C@@H](CCN)NC(=O)c9cc(NC(=O)c%10cc(NC(=O)CCNC(=O)c%11nc(NC(=O)c%12cc(NC(=O)c%13cc(NC(=O)CCNC(=O)c%14cc(NC(=O)c%15cc(NC(=O)c%16nccn%16C)cn%15C)cn%14C)cn%13C)cn%12C)cn%11C)cn%10C)cn9C)cn8C)cn7C)cn6C)cn5C)cn4C)cn3C)cn2C)cn1C [Polyamide 1050, ImPPβPPIβPPγNH2PPβPPPβPPPβDp] |  |  | 100 to 1000 | ≥ 1000 | 100 to 1000
